{
  "source": "patent US10472605B2",
  "about": "“Serum-free medium” (National University of Ireland, Galway, priority 2014, dated 2019)",
  "key": {"MSC [1]": {"tested_on": "MSC", "assay": "Growth/proliferation of MSC isolated in 10% FBS and re-attached under serum-free conditions", "type": "cell-based", "conditions": "fibronectin-coated; for MSC proliferation in serum free medium containing FGF2 (5 ng/ml): 5 days; for MSC proliferation in serum free medium: over 3 passages, days 5, 10 and 15", "description": "Tissue culture flasks were pre-coated with FN (black), HA (blue), VN (red) or LN (green) and cells were allowed to adhere in serum-free conditions. Cell numbers were obtained after 5 days. Controls include serum-free plating without the presence of an ECM attachment factor and 10% FBS (grey). Results are representative of 3 biological replicates with n=2;\nCells were then cultured in the presence of growth factors and passaged every 5 days. Controls include serum free plating without growth factors and 10% FBS. Results are representative of 3 biological replicates with n=2;\nCells were then cultured in serum-free media containing FGF2 (5 ng/ml) in the presence of PGE2, cholesterol or lipoprotein for 5 days. Controls include serum free plating without growth factors 10% FBS (A). Cells were then cultured in the presence of lipoprotein and passaged every 5 days for 3 passages, controls include serum free plating without lipoprotein (B). Results are representative of 3 biological replicates with n=2;\n(§1) Proliferation of the MSC attached in the presence of basic fibroblast growth factor (bFGF2, FGF2) was also assessed after 6 days.\nSerum-free basal medium formulation was selected based on the literature describing low-serum cell culture of dental pulp stem cells (Tarle et al., 2010). The basal medium was composed of ITS (1%, BD), ascorbic acid (10 mM, Sigma Aldrich), dexamethasone (10 nM, Sigma Aldrich), human serum albumin (50 mg/ml, Sigma Aldrich), penicillin/streptomycin solution (1%, Gibco) and MEM-α (Gibco). The effect of a range of growth factors on MSC proliferation was then examined. MSC were attached on fibronectin-coated tissue culture plastic for 48 hours in serum-free basal medium.\nThe effect of FGF2/FGF4 and FGF7 (1, 5 and 10 ng/ml), PDGFaa/PDGFab and PDGFbb (1, 5 and 10 ng/ml) on MSC proliferation over 3 passages on days 5, 10 and 15 was examined.\nTo further enhance MSC viability and proliferation lipoprotein was added to the serum-free basal medium. MSC isolated in the presence of serum were seeded on fibronectin-coated tissue culture plastic in serum free medium containing FGF2. Initially a range of factors were screened to support MSC viability after trypsinisation; the effect of prostoglandin E2 (PGE2; 50 μg/ml), cholesterol (30 μg/ml) and lipoprotein (4 μg/ml) on MSC proliferation in serum free medium containing FGF2 (5 ng/ml) was examined."}, "MSC [2]": {"tested_on": "MSC", "assay": "Attachment of MSC isolated in 10% FBS and re-attached under serum-free conditions", "type": "cell-based", "conditions": "EGF 10 ng/ml, serum free with FGF2, 3 passages", "excerpt": "Tissue culture flasks were pre-coated with fibronectin (FN; black), hylauronic acid (HA; blue), vitronectin (VN; red) or laminin (LN; green) and cells were allowed to adhere in serum-free conditions. Controls include serum-free plating without the presence of an extra-cellular matrix (ECM) attachment factor and 10% FBS (grey). Results are representative of 3 biological replicates with n=2;\nMSC were attached on tissue culture flasks in the presence of EGF (red) or on tissue culture plastic precoated with FN (purple) or in the presence of EGF on fibronectin coated plastic (green) and passaged every 3 days. Controls include serum free plating without the presence of an ECM attachment factor (blue) and 10% FBS (black). Results are representative of 3 biological replicates with n=2;\nas §1"}, "MSC [3]": {"tested_on": "MSC", "assay": "Serum-free MSC isolation from bone marrow (CFU and cell number at end of primary culture)", "type": "cell-based", "description": "The number of colony forming units (CFU; FIG. 6A) and cell number (FIG. 6B) was determined at the end of primary culture. An additional marrow was seeded on tissue culture plastic pre-coated with varying concentrations of fibronectin to determine optimal concentration of fibronectin required. The number of CFU (FIG. 6C) and cell yield (FIG. 6D) was determined at the end of primary culture. Controls include MSC isolation in the presence of 10% FBS or on non-coated tissue culture plastic;\nThe number of colony forming units (FIG. 7A) and cell number (FIG. 7B) was determined at the end of primary culture. Controls include MSC isolation in the presence of 10% FBS or on non-coated tissue culture plastic;\nInitially MSC were isolated from three bone marrows to determine a suitable attachment substrate. […] A further bone marrow donor was then screened to determine the optimal fibronectin concentration; 6 μg/ml was selected as the favourable concentration (FIGS. 6C and 6D).\nTo examine the role of EGF in MSC isolation and attachment, 5 bone marrows were tested. MSC were isolated in the presence of FGF2 (5 ng/ml) on fibronectin coated plastic in the presence of EGF, or on tissue culture plastic in the presence of EGF."}, "[4]": {"tested_on": "bone marrow mononuclear cells (MNCs)", "assay": "CFU-f assay, SF medium with various lipoproteins or fibronectin", "type": "cell-based, human", "conditions": "no fibronectin vs pre-coating vs fibronectin added to the medium; standard SF medium with LDL", "description": "For the lipoprotein study, Serum Free (SF) media was prepared containing: no lipoprotein (No lipo), very low density lipoprotein (VLDL), low density lipoprotein (LDL) and high density lipoprotein (HDL). Other lipoproteins that exist are chylomicrons and intermediate density lipoprotein which were not assessed in this study as they were not commercially available at the time. MSCs were isolated from bone marrow based on plastic adherence in SF medium by plating 40×10^6 human bone marrow mononuclear cells/T-175 and culturing at 37° C., 5% CO2, 21% O2. Cells were subcultured once they had reached 80-90% confluence. MSCs were evaluated by assessing growth kinetics, tri-lineage differentiation and surface marker phenotype at the end of passage 3 (P3). For the lipoprotein study, SF medium was modified to contain one of the various lipoproteins at 80 ng/mL and these cells are seeded onto T175 flasks, which had been pre-coated with fibronectin. For the fibronectin study described, standard SF medium containing LDL (Standard Formulation) was used and cells were seeded onto T175 flasks without fibronectin, with fibronectin pre-coating or with fibronectin added to the medium itself. CFU-f assays were carried out by seeding bone marrow mononuclear cells (MNCs) at a density of 1×10^6 MNC/10 cm^2 in triplicate in 6-well plates. […]"}, "MSCs": {"tested_on": "MSCs", "assay": "Growth kinetics of MSC cultures, lipoprotein and fibronectin study", "type": "cell-based, human", "conditions": "no fibronectin vs pre-coating vs fibronectin in the medium", "description": "MSCs were isolated from bone marrow based on plastic adherence in SF medium by plating 40×10^6 human bone marrow mononuclear cells/T-175 and culturing at 37° C., 5% CO2, 21% O2. Cells were subcultured once they had reached 80-90% confluence. MSCs were evaluated by assessing growth kinetics, tri-lineage differentiation and surface marker phenotype at the end of passage 3 (P3). For the lipoprotein study, SF medium was modified to contain one of the various lipoproteins at 80 ng/mL and these cells are seeded onto T175 flasks, which had been pre-coated with fibronectin. […]\nVLDL and LDL are involved in trafficking fats to cells in arteries which may indicate why these groups had cells which formed more disperse healthier looking CFU-fs. […] Applying these CFU-f numbers with cell yields at the end of each passage, growth curves were calculated. […]\nThe final aim of this work was to determine if fibronectin is required for isolation and establishment of MSC cultures in the proprietary serum-free medium. […] This was assessed by looking at CFU-f numbers and growth kinetics of cells isolated from bone marrow directly onto tissue culture plastic without fibronectin, onto tissue culture plastic pre-coated with fibronectin and finally with fibronectin incorporated into the medium itself."}, "[5]": {"conditions": "three bone marrows, attachment substrate vs vitronectin and hyaluronic acid"}},
  "data": [
    {"compound": "CCCCC[C@H](O)/C=C/[C@H]1[C@H](O)CC(=O)[C@@H]1C/C=C\\CCCC(=O)O", "note": "[PGE2, prostoglandin E2, reference compound]", "values": [
      {"measurement": "MSC proliferation in serum free medium containing FGF2 (5 ng/ml)", "setting": "MSC [1]; 50 μg/ml", "value": "inhibitory effect"}
    ]},
    {"compound": "CC(C)CCC[C@@H](C)[C@H]1CC[C@H]2[C@@H]3CC=C4C[C@@H](O)CC[C@]4(C)[C@H]3CC[C@]12C", "note": "[cholesterol, reference compound]", "values": [
      {"measurement": "MSC proliferation in serum free medium containing FGF2 (5 ng/ml)", "setting": "MSC [1]; 30 μg/ml", "value": "inhibitory effect"}
    ]},
    {"compound": "EGF: epidermal growth factor", "values": [
      {"measurement": "MSC attachment over passaging", "setting": "MSC [2]", "value": "increased MSC attachment"}
    ]},
    {"compound": "FGF2: basic fibroblast growth factor", "values": [
      {"measurement": "MSC proliferation in serum free medium", "setting": "MSC [1]; 5 ng/ml", "value": "increased MSC proliferation"}
    ]},
    {"compound": "PDGFab: growth factor PDGFab", "values": [
      {"measurement": "MSC proliferation in serum free medium", "setting": "MSC [1]; 10 ng/ml", "value": "increased MSC proliferation"}
    ]},
    {"compound": "fibronectin", "values": [
      {"measurement": "requirement for MSC attachment", "setting": "MSC [3]; 5 bone marrows, FGF2 5 ng/ml, with EGF, coated vs uncoated plastic", "value": "required"},
      {"measurement": "cell number at the end of the first passage", "setting": "MSC [3]; [5]", "value": "greatest cell number"},
      {"measurement": "colony forming units", "setting": "MSC [3]; [5]", "value": "more colony forming units"},
      {"measurement": "ability of CFU-fs to form / CFU-f numbers with or without fibronectin", "setting": "[4]", "value": "No difference"},
      {"measurement": "growth kinetics of the MSC cultures with or without fibronectin", "setting": "MSCs", "value": "unaffected"}
    ]}
  ]
}
